Patent publication US12264142B2, “Heterocyclic compounds” (FLORATEK PHARMA SA, priority 2019, dated 2025)
Entries after “also recorded” stand apart in the source; their conditions may differ.

Assays:
KEGG pathways = experiment: KEGG pathway mapping of differentially-expressed genes; assay type: in vivo, C. elegans
Source text: To determine which among recognized aging-related pathways were most likely modulated by treatment with the SND303 compound, and to estimate their relative contributions, two approaches were undertaken. In one approach, the genes differentially expressed after treatment were mapped to pathways in the KEGG database, a curated knowledgebase of biological pathways. This placed the transcriptomic data within the context of well-characterized biological pathways, particularly several related to longevity.
Several of these genes matched to the canonical longevity pathways as curated in KEGG (FIG. 5). […] At Day 10, however, many more pathways were represented among differentially-expressed genes and each individual pathway was more richly populated with differentially-expressed genes. The most prominent increase was in the expression of genes involved in Oxidative Phosphorylation, possibly indicating maintenance of mitochondrial function. In addition, several components of the canonical Longevity Regulating Pathway are represented. With closer examination of these the differential expression of the gene encoding Target of Rapamycin (TOR) is notable. When the TOR pathways itself was expanded, several more differentially-expressed genes were represented that were not explicitly indicated in the Longevity Regulating Pathway. Applying this process with the other pathways and modules linked to the Longevity Regulating Pathway, a coherent hypothetical pathway of action emerges.

[1] = system: N2 wild type strain of worms; experiment: C. elegans life span (survival) assay, manual scoring (SND301); assay type: in vivo
Experimental: The survival assay was conducted in the presence of 50 μM SND301 with measurements of live, dead, and censored worms at time points every 2-3 days from the start of adulthood.
Thioflavin T was used in the assay as a positive control [Gamir-Morralla A et al, 2019, “Effects of Thioflavin T and GSK-3 Inhibition on Lifespan and Motility in a Caenorhabditis elegans Model of Tauopathy”, J Alzheimers Dis Rep., 3(1): 47-57]. Vehicle 25% and 1% DMSO were used as controls and represent the vehicles in which compounds and bacteria or bacteria alone respectively were resuspended. The final DMSO concentration in the agar plates was 0.5% and 0.02% respectively.
5 mM DMSO stock solutions for each compound were prepared in high-grade DMSO. Stocks were protected from light and stored in glass vials at 21° C. in a temperature-controlled room (to avoid freeze/thaw of DMSO). A fresh stock was prepared at the start of each experiment and stored for <1 week.
The lifespan assay was designed and performed according to published and validated methods with modifications for chemical treatment [Amrit F R G et al, 2014, “The C. elegans lifespan assay toolkit”, METHODS 68, 465-475; Leukanic, et. Al, “Manual Lifespan Assay Standard Operating Procedure”, Caenorhabditis Intervention Testing Program, https://figshare.com/articles/7_CITP_SOP_Manual_Lifespan_Assay/9738197/1]. Plates were seeded with compound dissolved in 25% DMSO and bacteria. The DMSO diffused through the agar to reach a final concentration of 0.5%. Synchronized day 1 adult worms were transferred to seeded plates containing compound and allowed to lay eggs for 2 hours (Day 0, “hatchoff”). The young adults were then removed, and the eggs were incubated at 20° C. until they had reached the young adult stage (day 3). 200 young adult worms per treatment were transferred to 8 fresh seeded 35 mm dishes with compound and 50 μM 5-Fluorodeoxyuridine to suppress progeny. […] Worms that were missing, stuck to the dish, burrowed, injured, or exploded were scored as censored and removed from the plate. To maintain chemical exposure at the experimental concentrations, worms were transferred every other scoring day to new seeded plates with compound.

C. elegans = conditions: Ryu et al 2016; cited from earlier work
[2] = end of the study, SND301 and Urolithin A 50 μM

SMILES	cel00980 Metabolism of xenobiotics by cytochrome P450: differentially-expressed genes (KEGG pathways; Day 3)	cel04212 Longevity regulating pathway: differentially-expressed genes (KEGG pathways; Day 3)	cel00190 Oxidative phosphorylation: differentially-expressed genes (KEGG pathways; Day 10)	cel03040 Spliceosome: differentially-expressed genes (KEGG pathways; Day 10)	cel03050 Proteasome: differentially-expressed genes (KEGG pathways; Day 10)	cel04010 MARK signaling pathway: differentially-expressed genes (KEGG pathways; Day 10)	cel04120 Ubiquitin mediated proteolysis: differentially-expressed genes (KEGG pathways; Day 10)	cel04140 Autophagy: differentially-expressed genes (KEGG pathways; Day 10)	cel04141 Protein processing in endoplasmic reticulum: differentially-expressed genes (KEGG pathways; Day 10)	cel04150 mTOR signaling pathway: differentially-expressed genes (KEGG pathways; Day 10)	cel04212 Longevity regulating pathway-worm: differentially-expressed genes (KEGG pathways; Day 10)	cel04361 Axon regeneration: differentially-expressed genes (KEGG pathways; Day 10)	Death events ([1]; Table 1A, at a certain point during the study, N2, SND301 and Urolithin A 50 μM)	% Complete ([1]; Table 1A, deaths attributed to aging from total worm population, at a certain point during the study, N2)	Death events ([1]; Table 1B, end of the study, SND301 and Urolithin A 50 μM)	Maximum life span [1, 2]	Median lifespan [1, 2]	Effect on lifespan (C. elegans)
CC(C)NC(=O)Oc1ccc2c(c1)oc(=O)c1cc(OC(=O)NC(C)C)ccc12 [SND303]	gst-4; Glutathione S-transferase 4; also recorded: sodh-1; Alcohol dehydrogenase 1; also recorded: gst-5; Probable glutathione S-transferase 5	gst-4; Glutathione S-transferase 4; also recorded: gst-5; Probable glutathione S-transferase 5; also recorded: ctl-2; Peroxisomal catalase 1	15 genes	10 genes	11 genes	mtk-1; Protein kinase domain-containing protein; also recorded: fln-2; FiLamiN (actin binding protein) homolog; also recorded: nsy-1; Mitogen-activated protein; also recorded: mnk-1; MAP kinase-interacting; also recorded: pxf-1; Rap guanine nucleotide exchange factor; also recorded: ced-2; Cell death abnormality protein 2; also recorded: daf-2; Insulin-like receptor subunit beta	6 genes	let-363; Target of rapamycin homolog; also recorded: daf-15; Raptor_N domain-containing protein; also recorded: pek-1; Eukaryotic translation initiation; also recorded: atg-2; Autophagy-related protein 2; also recorded: cpl-1; Cathepsin L-like; also recorded: epg-7; ATG11 domain-containing protein; also recorded: ragc-1; RAs-related GTP binding; also recorded: unc-51; Serine/threonine-protein kinase unc-51	pdi-2; Protein disulfide-isomerase 2; also recorded: cup-2; Derlin-1; also recorded: skr-2; SKp1 Related (ubiquitin ligase; also recorded: pek-1; Eukaryotic translation initiation; also recorded: uggt-1; UDP-Glucose Glycoprotein; also recorded: nsy-1; Mitogen-activated protein kinase; also recorded: rbx-1; RING-box protein 1; also recorded: Protein transport protein Sec61 subunit gamma	let-363; Target of rapamycin homolog; also recorded: daf-15; Raptor_N domain-containing protein; also recorded: rict-1; RICTOR_V domain-containing protein; also recorded: T08A11.1; DEP domain-containing protein; also recorded: ragc-1; RAs-related GTP binding; also recorded: Y32H12A.8; WD_Repeats domain-containing; also recorded: daf-2; Insulin-like receptor subunit beta; also recorded: unc-51; Serine/threonine-protein kinase unc-51	let-363; Target of rapamycin homolog; also recorded: sod-2; Superoxide dismutase [Mn] 1, mitochondrial; also recorded: gst-7; Probable glutathione S-transferase 7; also recorded: fat-6; Delta(9)-fatty-acid desaturase fat-6; also recorded: daf-2; insulin-like receptor subunit beta; also recorded: unc-51; Serine/threonine-protein kinase unc-51	7 genes	–	–	–	–	–	–
O=c1oc2cc(O)ccc2c2ccc(O)cc12 [Urolithin A, reference compound]	–	–	–	–	–	–	–	–	–	–	–	–	47	25.7%	178	35 days	21 days	extended lifespan
